Measurements from patent US10851092B2, “Pyridine compound” (Daiichi Sankyo Company, Limited, priority 2016, dated 2020).
Like-named read-outs stand apart in the source and are kept apart here.

Columns and labels:
[1] = tested on: phosphorylated RET (ETV-RET) in Ba/F3-RET tumors; assay: One shot PKPD analysis, Ba/F3-RET tumors; assay type: in vivo, mice
Procedure: Murine pro-B cells, Ba/F3, expressing fusion protein of ets variant 6 (ETV)-RET and ETV-RET-V804L were constructed by Daiichi Sankyo RD Novare Co., Ltd., and cultivated in RPM11640 medium (Thermo Fisher Scientific K.K.) supplemented with 10% (v/v) heat-inactivated fetal bovine serum (FBS, GE Healthcare) and 1.5 µg/mL puromycin in a CO2 incubator that was set at 37° C. with a 5% CO2 atmosphere. The cells were suspended in DPBS and inoculated subcutaneously into mice at 1.0×10^7 cells per mouse. After the tumor had reached a size of 100 to 200 mm^3, the mice were randomized based on tumor diameter and the test compounds (10 mg/kg, Compound 229 or Example 3) which were dissolved in 1% (w/v) hydroxypropyl methylcellulose solution were administrated orally. Control group was administrated with 1% (w/v) hydroxypropyl methylcellulose solution. […] Protein concentration of tumor lysate was quantified by colorimetric reagent (Thermo Fisher Scientific K.K.) and all were diluted to the same concentration by lysis buffer. […] The chemiluminescence reaction of HRP and the substrate (Pierce ECL Plus Western Blotting Substrate, Cat. No. 32132, Thermo Fisher Scientific K.K.) was detected by an image scanner Typhoon 9400 (GE Healthcare). Signal intensities fo phosphorylated RET (pRET) and RET were quantified and calculated as following methods. […]

RET-V804L = RET-V804L (Homo sapiens (Human), UniProt P07949, V804L); assay: Evaluation of RET kinase inhibiting activity (cell system), Ba/F3 cells overexpressing RET (V804L) mutant; assay type: cell-based; conditions: Ba/F3, compound 2 hours
Sequence of RET-V804L (P07949 29-1114 V804L): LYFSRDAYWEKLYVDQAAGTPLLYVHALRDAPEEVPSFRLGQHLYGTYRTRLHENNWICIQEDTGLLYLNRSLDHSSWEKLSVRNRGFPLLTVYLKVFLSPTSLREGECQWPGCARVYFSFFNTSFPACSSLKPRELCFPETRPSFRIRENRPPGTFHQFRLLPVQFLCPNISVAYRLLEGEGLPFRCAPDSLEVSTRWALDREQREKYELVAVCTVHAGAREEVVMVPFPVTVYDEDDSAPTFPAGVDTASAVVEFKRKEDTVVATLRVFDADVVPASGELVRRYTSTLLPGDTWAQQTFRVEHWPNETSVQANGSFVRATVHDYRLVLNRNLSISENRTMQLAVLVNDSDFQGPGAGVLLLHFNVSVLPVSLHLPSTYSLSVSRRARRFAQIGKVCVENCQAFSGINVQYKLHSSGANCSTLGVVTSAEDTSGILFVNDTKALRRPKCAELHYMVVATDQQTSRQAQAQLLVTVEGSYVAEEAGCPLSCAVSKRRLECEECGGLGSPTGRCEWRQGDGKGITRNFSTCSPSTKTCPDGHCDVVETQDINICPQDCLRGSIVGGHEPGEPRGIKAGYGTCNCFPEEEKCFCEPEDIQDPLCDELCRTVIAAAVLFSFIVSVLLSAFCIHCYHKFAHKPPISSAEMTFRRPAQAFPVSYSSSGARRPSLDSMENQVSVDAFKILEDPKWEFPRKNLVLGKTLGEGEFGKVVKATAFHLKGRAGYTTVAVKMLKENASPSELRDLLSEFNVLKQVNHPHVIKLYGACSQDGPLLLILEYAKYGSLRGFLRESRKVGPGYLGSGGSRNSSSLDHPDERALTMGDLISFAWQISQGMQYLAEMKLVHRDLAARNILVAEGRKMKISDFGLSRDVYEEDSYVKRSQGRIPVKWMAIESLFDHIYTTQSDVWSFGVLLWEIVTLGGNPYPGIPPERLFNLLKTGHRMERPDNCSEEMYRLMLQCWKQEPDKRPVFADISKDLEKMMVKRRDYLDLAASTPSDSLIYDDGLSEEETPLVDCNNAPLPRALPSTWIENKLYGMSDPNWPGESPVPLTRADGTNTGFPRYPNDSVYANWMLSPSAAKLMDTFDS
Procedure: (§1) Thereafter, 1 mL of Cell Lysis Buffer (Cell signaling technology, #9803), a single tablet of Phosphatase inhibitor (Roche, #04906837001), and a single tablet of Protease inhibitor (Roche, #0469312400) were added to 9 mL of MilliQ, and 20 ul of the obtained mixture was then added to each well. The mixture thus obtained was placed on ice for 20 minutes, so that the cells were lysed. A 5-ul aliquot was taken from the cell lysate, and thereafter, 64 nl of Myc antibody (Cell signaling technology, #3946) and Streptavidin Donor beads in an equal amount of 102 nl of P-Tyr-100 Acceptor beads included in the Alpha Screen Phosphotyrosine (P-Tyr-100) assay kit (Perkin Elmer, #6760620C) were added to the aliquot in accordance with the instruction manual included with the aforementioned assay kit. The obtained mixture was reacted at room temperature overnight, and a RET kinase inhibiting activity rate was then measured using Envision.

RET-wild type = RET-wild type (Homo sapiens (Human), UniProt P07949); assay: Evaluation of RET kinase inhibiting activity (cell system), Ba/F3 cells overexpressing Myc tagged RET; assay type: cell-based; conditions: Ba/F3, compound 2 hours, read-out: RET-wild type IC50
Sequence of RET-wild type (P07949 29-1114): as the sequence (P07949 29-1114 V804L) above, with L776V counted along it
Procedure: as §1

[2] = biological target: RET recombinant protein (RET-wild type) (Homo sapiens (Human), UniProt P07949); assay: Evaluation of RET kinase inhibiting activity (cell-free system), mobility shift assay; assay type: biochemical
Sequence of RET recombinant protein (RET-wild type) (P07949 29-1114): as the sequence (P07949 29-1114 V804L) above, with L776V counted along it
Procedure: (§2) 19 uL of the RET kinase solution was added to each of lines A to P of a 384-well plate, and thereafter, the test compound at each concentration was added to lines C to N, and further, 1 uL of dimethyl sulfoxide (hereinafter referred to as DMSO) was added to each of lines A, B, O and P. Thereafter, the obtained mixtures were each preincubated at room temperature for 20 minutes. Furthermore, a substrate solution A containing ATP (final concentration: 1 mM) and a substrate solution B containing no ATP, both in addition to a reaction buffer and FL-Peptide 22 (PerkinElmer, #760366, final concentration: 1.5 uM) were produced. The substrate solution A was added in an amount of 5 uL to lines B to 0, whereas the substrate solution B was added in an amount of 5 uL to lines A and P. The obtained mixtures were each incubated at 28° C. for 45 minutes. A reaction termination solution (100 mM HEPES (pH 7.4), 0.015% Briji-35, 40 mM EDTA, and 0.1% Coating Reagent 3) was added in an amount of 40 ul to the reaction mixture, so as to terminate the reaction.
(§3) Using EZ Reader II (Perkin Elmer), a substrate peptide was separated from a phosphorylated peptide in the reaction solution, and the product ratio (P/(P+S)) calculated from the peak (S) of the substrate peptide and the peak (P) of the phosphorylated peptide was used for evaluation. The inhibition of the test compound having each concentration was obtained by the following formula (automatically calculated using the software of EZ Reader II System). Inhibition (%)=100×(1−Ci/Co) (a) Ci: Conversion rate of a reaction of a test compound with substrate solution A−conversion rate of a reaction of DMSO with substrate solution B Co: Conversion rate of a reaction of DMSO with substrate solution A−conversion rate of a reaction of DMSO with substrate solution B
(§4) Based on the inhibition rates of the test compound at 12 different concentrations according to the formula (a), a 4-parameter logistic regression curve was drawn. At this time, the 4-parameter logistic regression equation is expressed as follows. Inhibition (%)=Bottom+(Top−Bottom)/(1+(X/IC50)^^slope) (b) Top: Upward asymptote Slope: Slope parameter IC50: Value X of (Top+Bottom)/2 Bottom: Downward asymptote X: Concentration of test compound
(§5) First, any given initial values are inputted into Top, Slope, IC50, Bottom (Top=100, Slope=−1, IC50=approx. IC50, and Bottom=0), so that a regression curve was drawn. Subsequently, a least-squares method was executed to the sum of squares of a difference between the measured value and the estimated value obtained from formula (b) to calculate the coefficient of the 4-parameter logistic regression equation, so as to calculate IC50.

[3] = biological target: RET-Gatekeeper mutation (V804L) recombinant protein (Homo sapiens (Human), UniProt P07949, V804L); assay: Evaluation of RET kinase inhibiting activity (cell-free system), gatekeeper mutant; assay type: biochemical
Sequence of RET-Gatekeeper mutation (V804L) recombinant protein (P07949 29-1114 V804L): as the sequence (P07949 29-1114 V804L) above
Procedure: as §2, §3, §4, §5

IC50 (RET-V804L): 15 nM | IC50 (RET-wild type): 4 nM | IC50 ([2]; cell-free system, ATP 1 mM, read-out: RET-wild type IC50): 4.6 nM | IC50 ([2]; non-cell system, read-out: Biochemical assay (non-cell system) IC50 (nM) RET-WT): 4.6 nM | IC50 ([3]; cell-free system, ATP 1 mM, read-out: RET-V804L IC50): 6.3 nM | IC50 ([3]; non-cell system, read-out: Biochemical assay (non-cell system) IC50 (nM) RET-V804L): 6.3 nM
SMILES: COc1cc2cc(-c3ccc(CC(=O)Nc4cc(C(C)(C)C(F)(F)F)no4)cn3)cnc2cc1OC [Example 3, 2-[6-(6,7-Dimethoxyquinolin-3-yl)pyridin-3-yl]-N-[3-(1,1,1-trifluoro-2-methylpropan-2-yl)-1,2-oxazol-5-yl]acetamide]
inhibition of pRET in Ba/F3-RET tumors ([1]; 10 mg/kg oral): clearly inhibited | Relative phosphorylation of RET (%) in Ba/F3-RET tumors ([1]; Dose: 10 mg/kg oral, six hours after administration, relative to vehicle): 6%
